pIC50: −log10 of the molar value. Where “and” joins values, the source holds several entries; their conditions need not be identical. Identical values can stand only once.
molecular target: T1, hURAT1 (Homo sapiens, UniProt Q96S37); experiment: Inhibitory activity against URAT1: 14C-labelled uric acid uptake in HEK-293t cells stably expressing hURAT1; format: cell-based; details: HEK-293t/hURAT1 cells, 14C uric acid uptake, 5 minutes at room temperature; Ref Cpd 2, 83, Ref Cpd 3 and 129 are averages of head-to-head tests; read-out: IC50 (nM) of hURAT1 inhibitory activity
T1 sequence (Q96S37 1-553): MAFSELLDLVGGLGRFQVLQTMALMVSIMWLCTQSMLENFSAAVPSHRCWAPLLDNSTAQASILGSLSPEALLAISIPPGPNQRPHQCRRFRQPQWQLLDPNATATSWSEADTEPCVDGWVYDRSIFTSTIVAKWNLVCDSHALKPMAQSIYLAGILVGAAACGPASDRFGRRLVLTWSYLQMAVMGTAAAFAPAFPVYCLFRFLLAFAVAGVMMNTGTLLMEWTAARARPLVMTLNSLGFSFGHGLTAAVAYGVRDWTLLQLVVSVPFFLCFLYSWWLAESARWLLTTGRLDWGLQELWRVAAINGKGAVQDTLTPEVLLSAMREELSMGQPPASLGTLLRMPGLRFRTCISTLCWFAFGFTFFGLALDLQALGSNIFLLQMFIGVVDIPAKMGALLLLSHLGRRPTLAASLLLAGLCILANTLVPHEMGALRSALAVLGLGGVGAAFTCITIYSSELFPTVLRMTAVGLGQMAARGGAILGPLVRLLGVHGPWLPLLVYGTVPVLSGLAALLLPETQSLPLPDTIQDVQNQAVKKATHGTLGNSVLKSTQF
Source text: • Test example: Determination of the inhibitory activity of compounds according to the present invention against URAT1 Experimental Materials • FBS (Invitrogen, Cat. No. 10099141) • Trypsin (Invitrogen, Cat. No. 25200056) • DPBS (Invitrogen, Cat. No. 14190250) • DMEM (Invitrogen, Cat. No. 10564) • Penicillin-Streptomycin (Invitrogen, Cat. No. 15070-063) • TransIT-293 Transfection Reagent (MIRUS BIO, Cat. No. MIR2706) • Opti-MEM® I Reduced Serum Medium (Invitrogen, Cat. No. 31985-070) • URAT1 plasmid (Genecopoeia, Cat. No. EX-T4563-M03) • Uric acid [8-14C] (ARC, Cat. No. ARC0513-250UCI) • Ultima Gold™ XR (PerkinElmer, Cat. No. 6013111) • Benzbromarone (J&K Scientific, Cat. No. 3562-84-3) • D-Gluconic acid sodium salt (Aladdin, Cat. No. 527-07-1) • Potassium D-gluconate (Aladdin, Cat. No. 299-27-4) • Calcium gluconate (Aladdin, Cat. No. 299-28-5) • DMSO (Sigma, Cat. No. D2650) • Tube, 15 ml (Greiner, Cat. No. 07030115) • Tube, 50 ml (BD Falcon, Cat. No. 352098) • Poly-D-lysine 96-well microplates (BD, Cat. No. 356461) • Isoplate-96 Microplate (PERKIN ELMER, Cat. No. 6005040) Experimental Method:
Cell Culture: • 1. The HEK-293t cells that expressed the stable expression of hURAT1 were cultured in DMEM medium containing 10% FBS and 1% P/S, and incubated overnight in the incubator at 37° C. under 5% carbon dioxide. • 2. the culture medium was removed, and the cells were washed with PBS, and then the pancreatin was added to digest for 2 minutes. After the cell is separated from the dish, 10 ml of medium was added to terminate digestion. • 3. The cells were placed into a centrifugal apparatus and centrifugated for 2 minutes at the speed of 1000 rpm, followed by the addition of fresh 10 mL medium to resuspend the cells, and calculate the number of cells. The number of cells was adjusted to 4×10^5 cells/mL. • 4. the above counted cells were inoculated into the 96-well plate at 100 μL/well. • 5. The 96-well plate with inoculated cells was placed in a 37° C. cell incubator and cultivated overnight.
The uric acid absorption experiment labeled with isotope C14: • 1. 5 mL of Cl-free HBSS buffer was added to a 15 mL centrifuge tube, followed by the addition of the uric acid labeled with C14, and the concentration of uric acid was 2 uCi/ml. • 2. The medium in the 96-well plate that was previously cultivated overnight was removed, and the plate was washed three times with […] preheated Cl-free HBSS buffer. • 3. The buffer in the well-washed 96-well plate was removed. • 4. […] Cl-free HBSS buffer containing C-14 labeled uric acid was added into each well in the cleaned 96-well plate, and then DMSO solution of the compound that needs to be tested was added. • 5. After the 96-well plate stood for 5 minutes at room temperature, all the liquid in it was removed. • 6. […] precooled Cl-free HBSS buffer was added to wash the plate three times. • 7. After the remained liquid in the plates was completely removed, 50 μL cell lysis was added to each well, and the plate was agitated on the mixer at a speed of 600 revolutions/min for 10 minutes. • 8. After 50 μL Ultima Gold™ XR scitillation cocktail fluid was added, the plate was continued to agitate for 10 minutes. The well-agitated plate was sealed, and the data was read on MicroBeta Trilux. • 9. The test compound was dissolved in DMSO, and DMSO at the same concentration was added to the HEK293/hURAT1 cell well without test compounds. […] The radiation value obtained from the well containing DMSO is considered to be 100% of the cell uptake. The IC50 values of compounds can be calculated by the inhibition rate at different concentrations.
Among them, reference compound 1 was synthesized according to the method described in patent WO 2011/159839 A2. Reference compound 2 and reference compound 3 were synthesized according to the method described in patent WO 2014/183555 A1, and they were head-to-head tested with compounds 83 and 129 respectively under the same conditions.

IC50 [nM] | Compound
109 | CCOc1cccc(-c2ccc3nccc(SC(CC)(CC)C(=O)O)c3c2)c1 [Compound 113, 2-(6-(3-ethoxy-phenyl)-quinolin-4-ylthio)-2-ethylbutanoic acid]
203 | CCCC(CCC)(Sc1ccnc2ccc(Br)cc12)C(=O)O [Compound 114, 2-(6-bromoquinolin-4-ylthio)-2-propylpentanoic acid]
79 | COc1cc(-c2ccc3nccc(SC(C)(C)C(=O)O)c3c2)ccn1 [Compound 115, 2-(6-(2-methoxypyridin-4-yl)quinolin-4-ylthio)-2-methylpropanoic acid]
98 | CCC(CC)(Sc1ccnc2ccc(-c3ccnc(OC)c3)cc12)C(=O)O [Compound 116, 2-(6-(2-methoxypyridin-4-yl)quinolin-4-ylthio)-2-ethylbutanoic acid]
272 | CC(C)(Sc1ccnc2ccc(-c3ccnc(F)c3)cc12)C(=O)O [Compound 117, 2-(6-(2-fluoropyridin-4-yl)-quinolin-4-ylthio)-2-methylpropanoic acid]
133 | CCC(CC)(Sc1ccnc2ccc(-c3ccncc3)cc12)C(=O)O [Compound 119, 2-(6-(pyridin-4-yl)quinolin-4-ylthio)-2-ethylbutanoic acid]
1240 | Cc1cc(-c2ccc3nccc(SC(C)(C)C(=O)O)c3c2)ccn1 [Compound 120, 2-(6-(2-methylpyridin-4-yl)quinolin-4-ylthio)-2-methylpropanoic acid]
360 | CCC(CC)(Sc1ccnc2ccc(-c3ccnc(C)c3)cc12)C(=O)O [Compound 121, 2-(6-(2-methylpyridin-4-yl)-quinolin-4-ylthio)-2-ethylbutanoic acid]
201 | CCC(CC)(Sc1ccnc2ccccc12)C(=O)O [Compound 129]
138 | O=C(O)C1(Sc2ccnc3ccc(Br)cc23)CCC1 [Ref Cpd 2, reference compound]
794 | O=C(O)C1(Sc2ccnc3ccccc23)CCC1 [Ref Cpd 3, reference compound]
154 | CC(C)(Sc1ccncc1-c1ccc(C#N)c2ccccc12)C(=O)O [Ref cpd 1 (RDEA3170), reference compound]

same assay, conditions: average of the multiple head-to-head comparison tests, Table 2; read-out: Average (IC50 of multiple determinations)

pIC50 | Compound
6.86 | O=C(O)C1(Sc2ccnc3ccc(Br)cc23)CCC1 [Ref Cpd 2, reference compound]

same assay, conditions: single determinations of multiple head-to-head tests, Ref cpd 2 vs Cpd 83; read-out: Multiple determination data (IC50)

pIC50 | Compound
7.14 and 6.73 and 6.76 and 6.79 and 6.84 and 6.90 and 7.00 | O=C(O)C1(Sc2ccnc3ccc(Br)cc23)CCC1 [Ref Cpd 2, reference compound]

Reference: patent publication US10450274B2, “Quinoline compounds, preparation methods thereof, and uses thereof as urate transporter inhibitor drug” (HINOVA PHARMACEUTICALS INC., priority 2015, dated 2019)
